# Molecular target: T1, EGFR TMLRCS (Homo sapiens, UniProt P00533, C797S/L858R/T790M)
# T1 construct: host or cells: BaF3-TMLRCS (Ba/F3 cells, kept under puromycin selection)
# Experiment: HTRF Phospho EGFR TMLRCS Assay (Cellular)
# Type: cell-based
# Conditions: BaF3-TMLRCS cell line, 4 hours incubation, Phospho-EGFR HTRF readout
# Experimental: HTRF Phospho EGFR TMLRCS Assay (Cellular)
# BaF3-TMLRCS cell line were obtained from Crownbio (San Diego, CA, USA). Cells were maintained at 37° C., 5% CO2 in RPMI ATCC (Gibco 31870)+2 mM Glutamine+0.5 μg/ml Puromycin supplemented with 10% fetal bovine serum (FBS) (Gibco).
# Cells are transferred as above to Greiner Bio-One, Nr. 784-08 micro-titerplate at 20000 cells/well in 12.5 μl of growth medium/well after the plates had been pre-filled with 12.5 nl of DMSO solutions of the to be tested compounds (in dose response) or DMSO only. After spinning the plates at 300×g for 30 seconds the cells were incubated for 4 hours at 37 C, 5% CO2, 95% humidity. The cells were lysed by adding to the compound mix 4 μl/well of the supplemented lysis buffer (Cis-bio, Phospho-EGFR HTRF kit, 64EG1PEH), followed by incubation for 30 min at room temperature with shaking (400 rpm). The plates were then frozen and stored overnight at −80 C. On the next day and after thawing the plates, 4 μl of a mixture of anti-Phospho-EGFR Cryptate and of anti-Phospho-EGFR-d2 antibody solutions prepared in the supplied detection buffer was added to each well. The lidded plates were then incubated for 4 h at room temperature before reading the fluorescence emission at 616 and 665 nm using an Envision reader (Perkin Elmer). Data was analyzed in similar fashion as above using the normalized ratio of the 665 to 616 signals multiplied by 10000.
row,Compound,IC50 [nM]
1,"O=C(Nc1nccs1)C(c1ncn2c1C[C@@H](F)C2)n1cc2c(Cl)cc(-c3ccc(CCCN4CCC(CO)CC4)cc3)c(Cl)c2n1 (mixture of isomers) [Example 47, rac-2-(4,7-Dichloro-6-(4-(3-(4-(hydroxymethyl)piperidin-1-yl)propyl)phenyl)-2H-indazol-2-yl)-2-((R)-6-fluoro-6,7-dihydro-5H-pyrrolo[1,2-c]imidazol-1-yl)-N-(thiazol-2-yl)acetamide]",8
2,"O=C(Nc1nccs1)C(c1ncn2c1C[C@@H](F)C2)n1cc2c(Cl)cc(-c3ccc(OCCN4CCC(CO)CC4)cc3)c(Cl)c2n1 (mixture of isomers) [Example 68, rac-2-(4,7-Dichloro-6-(4-(2-(4-(hydroxymethyl)piperidin-1-yl)ethoxy)phenyl)-2H-indazol-2-yl)-2-((R)-6-fluoro-6,7-dihydro-5H-pyrrolo[1,2-c]imidazol-1-yl)-N-(thiazol-2-yl)acetamide]",4
3,"O=C(Nc1nccs1)C(c1ncn2c1C[C@@H](F)C2)n1cc2c(Cl)cc(-c3ccc(N4CC(CN5CCC(CO)CC5)C4)cc3)c(Cl)c2n1 (mixture of isomers) [Example 59, rac-2-(4,7-Dichloro-6-(4-(3-((4-(hydroxymethyl)piperidin-1-yl)methyl)azetidinyl)phenyl)-2H-indazol-2-yl)-2-((R)-6-fluoro-6,7-dihydro-5H-pyrrolo[1,2-c]imidazol-1-yl)-N-(thiazol-2-yl)acetamide]",5
4,"2-(4,7-Dichloro-6-(4-((3S,4S)-3-fluoro-1-(2-methoxyethyl)piperidin-4-yl)phenyl)-2H-indazol-2-yl)-2-((R)-6-fluoro-6,7-dihydro-5H-pyrrolo[1,2-c]imidazol-1-yl)-N-(thiazol-2-yl)acetamide OR 2-(4,7-dichloro-6-(4-((3R,4R)-3-fluoro-1-(2-methoxyethyl)piperidin-4-yl)phenyl)-2H-indazol-2-yl)-2-((R)-6-fluoro-6,7-dihydro-5H-pyrrolo[1,2-c]imidazol-1-yl)-N-(thiazol-2-yl)acetamide [Example 56]",13

# Now from value to compound:
row,IC50 [nM],Compound
1,12,"CC(O)C1CN(CCc2ccc(-c3cc(Cl)c4cn(C(C(=O)Nc5nccs5)c5ncn6c5C[C@@H](F)C6)nc4c3Cl)cc2)C1 (mixture of isomers) [Example 100, rac-2-(4,7-Dichloro-6-(4-(2-(3-(1-hydroxyethyl)azetidin-1-yl)ethyl)phenyl)-2H-indazol-2-yl)-2-((R)-6-fluoro-6,7-dihydro-5H-pyrrolo[1,2-c]imidazol-1-yl)-N-(thiazol-2-yl)acetamide]"
2,9,"CCN1C[C@@H]2CN(c3ccc(-c4cc(Cl)c5cn(C(C(=O)Nc6nccs6)c6ncn7c6C[C@@H](F)C7)nc5c4Cl)cc3)C[C@@H]2C1 (stereo partly drawn) [Example 81, 2-(4,7-Dichloro-6-(4-((3aR,6aS)-5-ethylhexahydropyrrolo[3,4-c]pyrrol-2(1H)-yl)phenyl)-2H-indazol-2-yl)-2-((R)-6-fluoro-6,7-dihydro-5H-pyrrolo[1,2-c]imidazol-1-yl)-N-(thiazol-2-yl)acetamide]"
3,4,"CN(Cc1ccc(-c2cc(Cl)c3cn(C(C(=O)Nc4nccs4)c4ncn5c4C[C@@H](F)C5)nc3c2Cl)cc1)C1CCC(O)CC1 (mixture of isomers) [Example 94, rac-2-(4,7-Dichloro-6-(4-(((4-hydroxycyclohexyl)(methyl)amino)methyl)phenyl)-2H-indazol-2-yl)-2-((R)-6-fluoro-6,7-dihydro-5H-pyrrolo[1,2-c]imidazol-1-yl)-N-(thiazol-2-yl)acetamide]"
4,10,"CCN1CC(c2ccc(-c3cc(Cl)c4cn(C(C(=O)Nc5nccs5)c5ncn6c5C[C@@H](F)C6)nc4c3Cl)cc2)C1 (stereo partly drawn) [Example 83, 2-(4,7-Dichloro-6-(4-(1-ethylazetidin-3-yl)phenyl)-2H-indazol-2-yl)-2-((R)-6-fluoro-6,7-dihydro-5H-pyrrolo[1,2-c]imidazol-1-yl)-N-(thiazol-2-yl)acetamide]"

# Source: patent US12479849B2, “EGFR inhibitors for the treatment of cancer” (Hoffmann-La Roche Inc., priority 2019, dated 2025)
